The record followed here is ChEMBL document CHEMBL1133635, “Caspases as targets for anti-inflammatory and anti-apoptotic drug discovery” (J Med Chem, 2000).

Where a SMILES comes first, the peptide text is derived from it. [ ]: non-standard residue; d: D form. ξ: configuration not given here. ξE = NC(CCC(=O)O)C(=O)O; βAla = NCCC(=O)O

Broadly, the IC50 is the point on the concentration scale where inhibition reaches its midpoint.

In one assay the target is T1, Caspase-1 (Homo sapiens, UniProt P29466).
T1 sequence (P29466 whole entry): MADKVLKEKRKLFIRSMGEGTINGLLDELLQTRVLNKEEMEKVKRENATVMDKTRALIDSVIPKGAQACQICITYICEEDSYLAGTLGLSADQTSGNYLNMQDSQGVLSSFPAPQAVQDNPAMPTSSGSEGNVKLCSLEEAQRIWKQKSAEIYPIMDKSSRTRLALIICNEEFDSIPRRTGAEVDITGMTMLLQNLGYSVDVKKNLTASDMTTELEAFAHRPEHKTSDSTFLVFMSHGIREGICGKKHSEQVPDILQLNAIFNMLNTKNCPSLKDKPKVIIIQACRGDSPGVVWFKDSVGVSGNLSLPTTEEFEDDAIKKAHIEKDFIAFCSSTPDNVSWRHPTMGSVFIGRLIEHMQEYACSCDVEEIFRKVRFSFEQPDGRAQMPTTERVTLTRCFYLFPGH
In words: Dissociation constant for inhibition of caspase-1.
Settings: not given
As for `CC(C)[C@H](NC(=O)c1ccc2ccccc2c1)C(=O)N1CCC[C@H]1C(=O)NC(C=O)CC(=O)NS(C)(=O)=O` (stereo partly drawn), the Ki turned out to be 0.038 µM.

Compound `CC(=O)N[C@@H](Cc1ccc(O)cc1)C(=O)N[C@H](C(=O)N[C@@H](C)C(=O)NC(C=O)CCC(=O)O)C(C)C` (stereo partly drawn) (Ac-YVA[ξE]-aldehyde) came in with a Ki of 0.009 µM.

On to `CC(=O)N[C@@H](Cc1ccc(O)cc1)C(=O)N[C@H](C(=O)N[C@@H](C)C(=O)N[C@@H](CC(=O)O)C(=O)C(=O)NCCc1ccccc1)C(C)C`, for which the Ki came out at 0.009 µM.

Consider `CC(=O)N[C@@H](Cc1ccc(O)cc1)C(=O)N[C@H](C(=O)N[C@@H](C)C(=O)NC(C=O)CC(=O)O)C(C)C` (stereo partly drawn), for which the Ki stood at 0.00076 µM.

With `O=C[C@H](CC(=O)O)NS(=O)(=O)c1ccccc1OCCc1cccc2ccccc12`, the Ki was 0.062 µM.

`O=C[C@H](CC(=O)O)NC(=O)[C@@H]1Cc2cccc3c2N1C(=O)[C@@H](NC(=O)c1cccc2ccccc12)CC3` yielded a Ki of 0.01 µM.

Take `CC(=O)N[C@@H](Cc1ccc(O)cc1)C(=O)N[C@H](C(=O)N[C@@H](C)C(=O)NCCC(=O)O)C(C)C` (Ac-YVA[βAla]-OH): the Ki was found to be 200 µM.

For the compound `O=C[C@H](CC(=O)O)NC(=O)C1CCC2CCC(NC(=O)OCc3ccccc3)C(=O)N21` (stereo partly drawn), the Ki is 0.036 µM.

As for `CC(C)[C@H](NC(=O)OCc1ccccc1)C(=O)N[C@@H](C)C(=O)NC(CC(=O)O)C(=O)COc1ccc2ccc(=O)oc2c1` (stereo partly drawn), the Ki worked out at 0.017 µM.

`CC(=O)N[C@@H](Cc1ccc(O)cc1)C(=O)N[C@H](C(=O)N1CC(O)C[C@H]1C(=O)NC(C=O)CC(=O)O)C(C)C` (stereo partly drawn) registered a Ki of 0.002 µM.

In another assay the target is T2, Caspase-1 (Homo sapiens) (UniProt P29466).
T2 sequence (whole entry): T1 sequence (P29466 whole entry)
Settings: not given
`CC(=O)N[C@@H](Cc1ccc(O)cc1)C(=O)N[C@H](C(=O)N[C@@H](C)C(=O)NC(C=O)CC(=O)O)C(C)C` (stereo partly drawn): the k on is 380000 M⁻¹ s⁻¹.

For the next assay, the target named is T2, Caspase-1 (Homo sapiens).
Settings: not given
This is another data set of the same source.
Take `CC(C)[C@H](NC(=O)OCc1ccccc1)C(=O)N[C@@H](C)C(=O)NC(CC(=O)O)C(=O)COc1cc2ccccc2cc1C(N)=O` (stereo partly drawn): the k on came to 430000 M⁻¹ s⁻¹.

Another assay deals with T1, Caspase-1. In words: Compound was evaluated for the inhibitory activity against caspase-1.
Settings: not given
Turning to `CC(C)[C@H](NC(=O)OCc1ccccc1)C(=O)N[C@@H](C)C(=O)N[C@@H](CC(=O)O)C(=O)c1nc(-c2ccccc2)c[nH]1`, the Ki worked out at 6.3 µM.

`CCCCC(C(=O)N[C@@H](CC(=O)O)C(=O)COc1ccccc1)n1cncc(NC(=O)c2cccc3ccccc23)c1=O` (stereo partly drawn): 0.046 µM corresponded to half-maximal inhibition (IC50).

Compound `O=C(O)C[C@H](NC(=O)C(c1ccccc1)n1cccc(NC(=O)c2cccc3ccccc23)c1=O)C(=O)COc1ccccc1` (stereo partly drawn) returned an IC50 of 0.01 µM.

With `CC(C)[C@H](NC/C=C/c1ccccc1)C(=O)N1CC(O)C[C@H]1C(=O)NC(CC(=O)O)C(=O)COc1ccccc1` (stereo partly drawn), it took 0.013 µM to reach half-maximal inhibition (IC50).

Take `CC(=O)N[C@@H](Cc1ccc(O)cc1)C(=O)N[C@H](C(=O)N[C@@H](C)C(=O)NC(CC(=O)O)C(=O)CCCCCc1ccccc1)C(C)C` (stereo partly drawn): the IC50 was found to be 0.0185 µM.

`CC(C)[C@H](CC(=O)NCCc1cn(C)c2ccccc12)C(=O)NC(CC(=O)O)C(=O)CNS(=O)(=O)CC12CCC(CC1=O)C2(C)C` (stereo partly drawn) yielded an IC50 of 0.0004 µM.

Take `CC(C)[C@H](NC(=O)OCc1ccccc1)C(=O)N[C@@H](C)C(=O)N[C@@H](CC(=O)O)C(=O)c1ncc(-c2ccccc2)o1`: the Ki came out at 0.24 µM.

Compound `CC[C@@H](C(=O)NC(CC(=O)O)C(=O)CNCCc1ccccc1)n1cccc(NC(=O)c2ccc3ccccc3c2)c1=O` (stereo partly drawn) had an IC50 of 0.00037 µM.

In the case of `CC(C)[C@H](NC(=O)OCc1ccccc1)C(=O)N[C@@H](C)C(=O)NC(CC(=O)O)C(=O)COC(=O)CCc1ccccc1` (stereo partly drawn), the IC50 was 0.0019 µM.

On to `CC(C)[C@H](NC(=O)OCc1ccccc1)C(=O)N[C@@H](C)C(=O)N[C@@H](CC(=O)O)C(=O)c1ncc[nH]1`, for which the Ki was 8.8 µM.

As to `CC(C)[C@H](NC(=O)OCc1ccccc1)C(=O)N[C@@H](C)C(=O)N[C@@H](CC(=O)O)C(=O)c1ncco1`, the Ki is 13 µM.

In turn, `CC(C)[C@H](NC(=O)OCc1ccccc1)C(=O)N[C@@H](C)C(=O)NC(CC(=O)O)C(=O)COc1cc2ccccc2cc1C(N)=O` (stereo partly drawn) had an IC50 of 0.0017 µM.

Regarding `CC(C)[C@H](NC(=O)OCc1ccccc1)C(=O)N[C@@H](C)C(=O)N[C@@H](CC(=O)O)C(=O)c1nccs1`, the Ki amounted to 10 µM.

As to `CC(C)[C@H](NC(=O)c1ccccc1)C(=O)N(CC(=O)NC(CC(=O)O)C(=O)c1nc2ccccc2o1)C1Cc2ccccc2C1` (stereo partly drawn), the IC50 was determined as 0.002 µM.

The target of a further assay is T3, Caspase-7 (Homo sapiens, UniProt P55210).
T3 sequence (P55210 whole entry): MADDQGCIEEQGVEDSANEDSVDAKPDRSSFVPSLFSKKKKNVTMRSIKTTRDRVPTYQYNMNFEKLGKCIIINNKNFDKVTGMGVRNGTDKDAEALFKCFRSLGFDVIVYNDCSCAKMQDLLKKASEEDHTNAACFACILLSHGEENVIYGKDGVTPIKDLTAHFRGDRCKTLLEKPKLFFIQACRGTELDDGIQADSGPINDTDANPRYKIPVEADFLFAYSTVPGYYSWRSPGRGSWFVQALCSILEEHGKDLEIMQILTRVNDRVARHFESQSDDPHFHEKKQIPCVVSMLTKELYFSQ
The assay is described as follows: Evaluated for kinetic dissociation constant […] for the inhibition of caspase-7. The conditions noted are these: read-out: Ki app.
Take `CN1C(=O)C(=O)c2cc(S(=O)(=O)N3CCC[C@H]3COc3ccccc3)ccc21`: the Ki worked out at 0.047 µM.

The next assay deals with T4, Caspase-3 (Homo sapiens, UniProt P42574).
T4 sequence (P42574 whole entry): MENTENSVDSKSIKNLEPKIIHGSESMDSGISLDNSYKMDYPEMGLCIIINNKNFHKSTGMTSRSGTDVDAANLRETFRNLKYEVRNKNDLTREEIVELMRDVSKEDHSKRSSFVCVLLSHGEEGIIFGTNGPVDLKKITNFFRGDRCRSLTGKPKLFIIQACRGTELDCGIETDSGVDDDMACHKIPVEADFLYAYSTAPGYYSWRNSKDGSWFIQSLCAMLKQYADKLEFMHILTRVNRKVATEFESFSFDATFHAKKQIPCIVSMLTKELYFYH
The assay is described as follows: Evaluated for the dissociation constant for the inhibition of caspase-3. The conditions noted are these: read-out: Ki app.
With `CN1C(=O)C(=O)c2cc(S(=O)(=O)N3CCC[C@H]3COc3ccccc3)ccc21`, the Ki turned out to be 0.015 µM.
